Here are results for four molecules from patent publication US5912227A, “Method of enhancing nutrient uptake” (North Carolina State University, priority 1995, dated 1999).

Data set [1] concerns jejunal glucose transport (S-GLT1 transporter). Put plainly: Jejunal glucose transport ([3H]3-O-methyl-D-glucose uptake by jejunal rings of treated mice, with and without phlorizin). It is filed as in vivo, swiss-webster mice. Conditions: for Glucose Transport, Total / Glucose Transport, Active / Glucose Transport, Passive: mid-jejunal rings of treated mice; for Glucose Transport, Total: 37° C. without phlorizin minus 4° C. with phlorizin; for Glucose Transport, Active: difference of 3OMG accumulation with and without phlorizin, 37° C.; for Glucose Transport, Passive: with phlorizin, 37° C. minus 4° C. How it is done:
(§1) Two month old male swiss-webster mice obtained from Charles River Laboratory were subcutaneously injected in the post-scapula region once a day for three days with one of the following treatments: (1) Saline treatment: 0.25 ml of sterile physiological saline (0.9% saline) (n=9 mice); (2) Peptide YY (PYY) treatment: 300 μg per kilogram body weight of Peptide YY in 0.25 ml sterile physiological saline solution (n=6 mice); (c) Somatostatin treatment: 120 μg per kilogram body weight of somatostatin in 0.25 ml sterile physiological saline solution (n=6 mice); or (4) Transforming Growth Factor alpha (TGFα) treatment: 300 μg per kilogram body weight of TGFα in 0.25 ml sterile physiological saline solution (n=6 mice).
A sample of mid-jejunal tissue was dissected out of each of the small intestines removed in Example 2. As described below, each glucose transport assay was replicated three times per mouse, and an assay to measure non-specific binding was replicated twice per mouse. Thus each mid-jejunal sample (one from each mouse) was cut into eight one millimeter rings.
The assay for glucose transport was a modification of the assay validated by Black, Comp. Biochem Physiol. 90A:379 (1988) to measure glucose transport in embryonic chick duodenum. Additional details of the present method as modified for mouse intestine are discussed in Bird et al., J. Nutr. 124:231 (1994), and the method is validated for mice in Bird et al., Nutr. Research, 14:411 […]. The transport buffer utilized for jejunal samples was similar to that described by Black (1988) but also contained 0.5 mmol/L 3-O-methyl-D-glucose (3 OMG), 0.5 mmol/L B-hydroxybutyrate, and 2.5 mmol/L glutamine. The assay was started by transferring intestinal rings preincubated at 37° C. for 5 minutes in transport buffer to beakers containing 28 MBq/L of [^3 H]3 OMG in 2 ml of buffer. To differentiate active from passive transport, phlorizin (phloretin-2'-β-D-glucoside; Sigma Chemicals, St. Louis, Mo.) was utilized. Phlorizin is a specific inhibitor of the S-GLT1 transporter (a sodium dependent active transporter) located on the luminal surface of absorptive epithelium (see Brot-Laroche and Alvarado, Mechanisms of sugar transport across the intestinal brush border membrane, IN: Intestinal Transport: Fundamental and Comparative Aspects, Gilles-Baillin and Gilles (Eds.), Springer-Verlag, Berlin (1983)). The S-GLT1 transporter is one of a family of transporter proteins, and actively transports glucose.
Uptake of [^3 H]3 OMG was stopped after 5 minutes by rinsing samples in 3 ml of ice-cold mannitol (300 mmol/L). Labelled substrate was extracted from the tissue into 2 mL of trichloroacetic acid (25 g/L) at 37° C. for 60 minutes in a shaking water bath. Samples were removed, blotted and weighed. The extract was centrifuged at 2000×g for 15 minutes at 4° C., and then 1 ml of the decanted supernatant was dispersed in 5 ml of Ecolite (+) scintillation cocktail (ICN Biomedicals, Cleveland, Ohio) and counted for 10 minutes in a scintillation counter. Duplicate aliquots (100 uL) of incubation media containing approximately 2.8 kBq [^3 H]3 OMG (both with and without phlorizin) and a blank were counted with each set of samples.
Active glucose transport was calculated as the difference between 3 OMG accumulation in media with and without phlorizin. Passive transport was calculated as the difference between 3 OMG accumulation in the presence of phlorizin at 37° C. and 4° C. Total transport is the difference between 3 OMG accumulation at 37° C., in the absence of phlorizin, and accumulation at 4° C. in the presence of phlorizin. Transport data are presented as pmol glucose/(min-mg wet tissue). Fasting body weight of the mice was used to express data on a body weight basis.

Data set [2] in a line: Visceral organ weight of treated mice. Format: in vivo, swiss-webster mice. How it is done: as §1
After the treated mice were sacrificed by cervical dislocation as described in Example 2, the visceral organs were dissected out and the liver, stomach, kidneys, colon and caecum of each mouse was weighed. The kidneys of the PYY treatment group were heavier than those of other treatment groups for unknown reasons.

The test system of data set [3] is jejunal oxygen consumption. Nature of the data set: Jejunal oxygen consumption of treated mice, with and without ouabain. Format: in vivo, swiss-webster mice. To be noted: jejunum of treated mice, 37° C.; for Oxygen Consumption, With Ouabain, Dry / Oxygen Consumption, Without Ouabain, Dry: dry tissue; for Oxygen Consumption, With Ouabain, Wet / Oxygen Consumption, Without Ouabain, Wet: wet tissue. How it is done: as §1
Measurement of oxygen consumption rate was determined as described by McBride and Milligan, Br. J. Nutr., 53:605 (1985) for ovine duodenal mucosa, and as described by Bird et al., J. Nutr. 124:231 (1994) for mice jejunum, using an oxygen monitor and an incubation bath fitted with an O2 electrode (Yellow Springs Instruments, Yellow Springs, Ohio, USA). Adjacent jejunal ring samples (two from each mouse jejunum) were prepared by rinsing in ice-cold HEPES transport buffer to remove digesta residues. The rate of O2 uptake of the duplicate jejunal samples, constantly stirred in 4 ml of media at 37° C., was electronically recorded. After 3 minutes, 100 uL of 12.6 mmol/L ouabain (Sigma Chemical), a specific inhibitor of Na+, K+-ATPase, was added to the chamber and oxygen consumption was plotted for 3 minutes. Dry matter content of the tissue pieces was then measured by drying the jejunal samples at 80° C. in a forced draught oven for 48 hours.

In data set [4] the test system is Na-dependent active glucose uptake. Nature of the data set: Energetic efficiency of Na-dependent active glucose uptake. To be noted: compared with saline control; 1 nmol O2 assumed = 5 nmol ATP; FIG. 1. It is filed as in vivo, swiss-webster mice. How it is done: The energetic efficiency of Na-dependent active glucose uptake in the PYY treated mice and the saline control treated mice was calculated, assuming that consumption of 1 nmol of O2 (as measured in Example 5, above) indicated expenditure of 5 nmol of ATP (Gill et al., J. Nutr. 119:1287-1299 (1989).

In data set [5] the test system is water and electrolyte absorption from the small intestine. Conditions: unfed dogs, peripheral infusion; cited from earlier work.
The subject of data set [6] is sodium-dependent duodenal active transport. To be noted: sheep injected with recombinant bovine growth hormone; cited from earlier work.
Setting [7] is: mice, s.c. once a day for three days.

Consider `C[C@H](N)C(=O)NCC(=O)N[C@H]1CSSC[C@@H](C(=O)O)NC(=O)[C@H](CO)NC(=O)[C@H]([C@@H](C)O)NC(=O)[C@H](Cc2ccccc2)NC(=O)[C@H]([C@@H](C)O)NC(=O)[C@H](CCCCN)NC(=O)[C@H](Cc2c[nH]c3ccccc23)NC(=O)[C@H](Cc2ccccc2)NC(=O)[C@H](Cc2ccccc2)NC(=O)[C@H](CC(N)=O)NC(=O)[C@H](CCCCN)NC1=O` [Somatostatin, somatostatin], for which, in data set [1], the “Glucose Transport, Total” value was found to be 371 pmol/min/mg tissue; the “Glucose Transport, Active” value is given as 303 pmol/min/mg tissue; the “Glucose Transport, Passive” value turned out to be 67 pmol/min/mg tissue. Besides, in data set [2] (setting [7]), the “Organ Weight, Caecum” value was determined as 156 mg; the “Organ Weight, Colon” value was 316 mg; the “Organ Weight, Kidneys” value came out at 534 mg; the “Organ Weight, Liver” value is listed as 1441 mg. In addition, the “Organ Weight, Stomach” value in data set [2] (setting [7]) was found to be 232 mg. Besides, in data set [3], the “Oxygen Consumption, With Ouabain, Dry” value worked out at 181.29 µL/min/g; the “Oxygen Consumption, Without Ouabain, Dry” value was 224.77 µL/min/g; the “Oxygen Consumption, With Ouabain, Wet” value was 35.13 µL/min/g; the “Oxygen Consumption, Without Ouabain, Wet” value turned out to be 43.62 µL/min/g.
For Transforming Growth Factor alpha [TGFα], in data set [1], the “Glucose Transport, Total” value is 410 pmol/min/mg tissue; the “Glucose Transport, Active” value is recorded as 347 pmol/min/mg tissue; the “Glucose Transport, Passive” value worked out at 64 pmol/min/mg tissue. Besides, in data set [2] (mouse, in vivo, sc), the “Organ Weight, Caecum” value came to 156 mg; the “Organ Weight, Colon” value was 379 mg; the “Organ Weight, Kidneys” value is given as 522 mg; the “Organ Weight, Liver” value stood at 1442 mg. For the same molecule, the “Organ Weight, Stomach” value in data set [2] (mouse, in vivo, sc) worked out at 243 mg. Moreover, in data set [3], the “Oxygen Consumption, With Ouabain, Dry” value came out at 179.01 µL/min/g; the “Oxygen Consumption, Without Ouabain, Dry” value amounted to 238.76 µL/min/g; the “Oxygen Consumption, With Ouabain, Wet” value is 36.03 µL/min/g; the “Oxygen Consumption, Without Ouabain, Wet” value worked out at 47.96 µL/min/g.
For “PYY: 36 amino acid hormonal peptide, produced by "L type" endocrine cells; member of the pancreatic polypeptide family [Peptide YY]”, the “increase in active glucose transport expressed per unit of body weight (Table 2 footnote)” value in data set [1] (compared to saline control) is on record as 46. In addition, in data set [1] (compared to the saline control group), the “increase in active glucose transport expressed per unit of fasting body weight” value came to 46%. In data set [1], the “Glucose Transport, Total” value is listed as 431 pmol/min/mg tissue; the “Glucose Transport, Active” value turned out to be 369 pmol/min/mg tissue; the “Glucose Transport, Passive” value is given as 63 pmol/min/mg tissue. For the same molecule, the “active glucose transport, comparison with saline control group” value in data set [1] (per milligram of intestinal tissue) was “statistically significant increase”. In data set [2] (mouse, in vivo, sc), the “Organ Weight, Caecum” value is listed as 134 mg; the “Organ Weight, Colon” value turned out to be 315 mg; the “Organ Weight, Kidneys” value is given as 468 mg; the “Organ Weight, Liver” value is reported as 1274 mg. In addition, in data set [2] (mouse, in vivo, sc), the “Organ Weight, Stomach” value was 230 mg. In addition, in data set [3], the “Oxygen Consumption, With Ouabain, Dry” value is 194.22 µL/min/g; the “Oxygen Consumption, Without Ouabain, Dry” value came out at 253.93 µL/min/g; the “Oxygen Consumption, With Ouabain, Wet” value was 36.54 µL/min/g; the “Oxygen Consumption, Without Ouabain, Wet” value is 47.71 µL/min/g. Moreover, the “metabolic cost of total glucose uptake (total nmol ATP expended per nmol of 3OMG uptake)” value in data set [4] is “less”. For the same molecule, in data set [5], the “water and electrolyte absorption from the small intestine” value is “dose-dependent increase”.

B1: recombinant bovine growth hormone: recombinant bovine growth hormone injected in sheep (cited Ph.D. thesis) (protein, UniProt P01246 27-217, looked up)
Somatotropin: AFPAMSLSGLFANAVLRAQHLHQLAADTFKEFERTYIPEGQRYSIQNTQVAFCFSETIPAPTGKNEAQQKSDLELLRISLLLIQSWLGPLQFLSRVFTNSLVFGTSDRVYEKLKDLEEGILALMRELEDGTPRAGQILKQTYDKFDTNMRSDDALLKNYGLLSCFRKDLHKTETYLRVMKCRRFGEASCAF
With B1, in data set [6], the “increase of sodium-dependent duodenal active transport of glucose” value is listed as “approximately 60%” and the “increase of transport of proline” value is “approximately 30%”.
